Several values for one entry are separate records, joined by “and”; a condition that tells them apart may be missing. Identical values can stand only once. One block for each compound: values may come before it.
How the values were obtained:
potassium channels [1] = biological target: potassium channels (Cavia porcellus, UniProt A0A286XYR9); experiment: Membrane hyperpolarization (MHP) assay in primary cultured guinea-pig urinary bladder (GPB) cells, DiBAC(4)3 FLIPR; format: cell-based; settings: for MHP in GPB Cells Maximal Response (% P1075): maximal steady-state hyperpolarization relative to reference P1075 (assigned as 100%); for EC50: concentration that elicits 50% of the maximal response for the test sample
Protocol: Determination of Potassium Channel Opening Activity Membrane Hyperpolarization Assays Compounds were evaluated for potassium channel opening activity using the rat thoracic aorta smooth muscle AI 0 cell line or primary cultured guinea-pig urinary bladder (GPB) cells. The AI0 cell line was purchased from the American Type Culture Collection (Rockville, MD; Cat # 30-2002). […] Louis, MO) and 0.2 mg/mL ronase (Calbiochem, La Jolla, CA) with continuous stirring in a cell incubator for 30 minutes. The mixture was then centrifuged at 1300 x g for 5 minutes, and the pellet resuspended in Dulbecco's PBS (GIBCO, Gaithersburg, MD) and recentrifuged to remove residual enzyme. […] Cells were confirmed to be of smooth muscle type by cytoskeletal staining using a monoclonal mouse anti human-a-smooth muscle actin (Biomeda, Foster City, CA). Functional activity at potassium channels was measured by evaluating changes in membrane potential using the bis-oxonol dye DiBAC(4)3 (Molecular Probes) in a 96-well cell-based kinetic assay system, Fluorescent Imaging Plate Reader (FLIPR) (K.S. Schroeder et al., J. Biomed. Screen., v. I pp. 75-81 (1996)). DiBAC(4)3 is an anionic potentiometric probe which partitions between cells and extracellular solution in a membrane potential-dependent manner. With increasing membrane potential (for example, K+depolarization), the probe further partitions into the cell; this is measured as an increase in fluorescence due to dye interaction with intracellular lipids and proteins. Conyersely, decreasing membrane potential (hyperpolarization by potassium channel openers) evokes a decrease in fluorescence. […] HEPES, 20; NaCl, 120; KCl, 2; CaC'2, 2; MgCl2, 1; glucose, 5; pH 7.4 at 25 ° C.) containing 5 µM DiBAC(4)3 and incubated with […] of the buffer in a cell incubator for 30 minutes at 37 OC to ensure dye distribution across the membrane. After recording the baseline fluorescence for 5 minutes, the reference or test compounds, prepared at 10 times the concentration in the assay buffer, were added directly to the wells. Changes in fluorescence were monitored for an additional 25 minutes. […] Pharmacol., v. 43 pp. 474-481 (1993)). Routinely, five concentrations of […] or test compounds (log or half-log dilutions) were evaluated and the maximal steady-state hyperpolarization values (expressed as % relative to […]) plotted as a function of concentration. […] The maximal response of each compound (expressed as % relative to […]) is reported.

potassium channels [2] = biological target: potassium channels (Sus scrofa, UniProt F1SR11); experiment: Functional potassium channel opening activity in isolated Landrace pig bladder strips (field-stimulated twitch); settings: for Landrace Pig Bladder Index: ED50 for P1075 divided by ED50 for the test agonist, averaged over tissues; for Landrace Pig Bladder pD2: negative logarithm of ED50
How it was run: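 Landrace pig bladder strips with the mucosa removed were field-stimulated (0.05 Hz, 0.5 ms, 20 V) in Krebs Ringer bicarbonate containing propranolol, and primed with 80 mM KCl. Cumulative concentration-response curves gave maximal efficacy relative to a reference potassium channel opener, pD2, and a potency index (reference ED50/test ED50) averaged across tissues.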

potassium channels [3] = biological target: potassium channels (Homo sapiens, UniProt O60706); experiment: Functional potassium channel opening activity in isolated human bladder strips (25 mM KCl contracted)
Protocol: Human bladders were obtained from women greater than 45 years old. The human tissue was obtained from the Anatomic Gift Foundation, Phoenix AZ. Human tissue was received via overnight delivery on wet ice placed into Krebs Ringer bicarbonate solution (composition, mM: NaCl, 120; NaHCO3, 20; dextrose, 11; KCl, 4.7; 20 CaC′2, 2.5; MgSO4, 1.5; KH2PO4, 1.2; K2EDTA, 0.01, equilibrated with 5% C02/95% 02 pH 7.4 at 37 ° C.). Propranolol (0.004 mM) was included in all of the assays to block […]. The trigonal and dome portions were discarded. Strips 3-5 mm wide and 20 mm long were prepared from the remaining tissue cut in a circular fashion. The mucosal layer was removed. For the human detrusor strips the tissues were contracted 25 with 25 mM KCl which produced a steady state tension of approximately 400 centigrams. […]
After a 60 minute rinsing period, a concentration response curve (cumulative) was 30 generated for the test agonist in the same fashion as that used for the control agonist P1075. The maxximal efficacies of the compounds (expressed as % relative to P1075) are reported. […] Agonist potencies were also expressed as an index relative to PI1075. The index was calculated by dividing the ED50 for P1075 by the ED50 for the test agonist in a given tissue. […]

potassium channels [4] = biological target: potassium channels (Rattus norvegicus, UniProt Q63563); experiment: Membrane hyperpolarization (MHP) assay in A10 cells, DiBAC(4)3 FLIPR; format: cell-based; settings: for EC50: concentration that elicits 50% of the maximal response for the test sample; for MHP in A10 Cells Maximal Response (% P1075): maximal steady-state hyperpolarization relative to reference P1075 (assigned as 100%)
Protocol: Determination of Potassium Channel Opening Activity Membrane Hyperpolarization Assays Compounds were evaluated for potassium channel opening activity using the rat thoracic aorta smooth muscle AI 0 cell line or primary cultured guinea-pig urinary bladder (GPB) cells.
The AI0 cell line was purchased from the American Type Culture Collection (Rockville, MD; Cat # 30-2002). Cells were grown in 96-well clear-bottomed black plates (Packard) in culture media (composition: Dulbecco′s modified Eagle′s medium supplemented with 20% Fetal Bovine Serum, 100 units/mL penicillin, 100 units/mL streptomycin and 0.25 […]) at 37 ° C. with 5% C02 in a humidified chamber to form a confluent monolayer. 25 For the preparation of urinary bladder smooth muscle cells, urinary bladders were removed from male guinea-pigs (Hartley, Charles River, Wilmington, MA) weighing 300-400 g and placed in ice-cold Ca^2+-free Krebs solution (Composition, mM: KCl, 2.7; KH2PO4, 1.5; NaCl, 75; Na2HPO4, 9.6; Na2HPO4.7H2O, 8; MgSO4, 2; glucose, 5;HEPES, 10; pH 7.4). Cells were isolated by enzymatic dissociation as previously escribed with minor modifications (Klockner, U. and Isenberg, G., Pflugers Arch. 1985, 05, 329-339). The bladder was cut into small sections and incubated in 5 mL of the reb′s solution containing I mg/mL collagenase (Sigma, St. Louis, MO) and 0.2 mg/mL ronase (Calbiochem, La Jolla, CA) with continuous stirring in a cell incubator for 30 minutes. […]
Functional activity at potassium channels was measured by evaluating changes in membrane potential using the bis-oxonol dye DiBAC(4)3 (Molecular Probes) in a 96-well cell-based kinetic assay system, Fluorescent Imaging Plate Reader (FLIPR) (K.S. Schroeder et al., J. Biomed. Screen., v. I pp. 75-81 (1996)). […] With increasing membrane potential (for example, K+depolarization), the probe further partitions into the cell; this is measured as an increase in fluorescence due to dye interaction with intracellular lipids and proteins.
Conyersely, decreasing membrane potential (hyperpolarization by potassium channel openers) evokes a decrease in fluorescence.
Confluent smooth muscle A10 or guinea-pig urinary bladder cells cultured in black clear-bottomed 96-well plates were rinsed twice with […] assay buffer (composition, mM: HEPES, 20; NaCl, 120; KCl, 2; CaC′2, 2; MgCl2, 1; glucose, 5; pH 7.4 at 25 ° C.) containing 5 µM DiBAC(4)3 and incubated with […] of the buffer in a cell incubator for 30 minutes at 37 OC to ensure dye distribution across the membrane. After recording the baseline fluorescence for 5 minutes, the reference or test compounds, prepared at 10 times the concentration in the assay buffer, were added directly to the wells. Changes in fluorescence were monitored for an additional 25 minutes. […]

[5] = maximal efficacy relative to P1075, field stimulation 0.05Hz, 0.5 milli-seconds at 20 volts

Chain of potassium channels (Cavia porcellus, UniProt A0A286XYR9) (A0A286XYR9 1-1546): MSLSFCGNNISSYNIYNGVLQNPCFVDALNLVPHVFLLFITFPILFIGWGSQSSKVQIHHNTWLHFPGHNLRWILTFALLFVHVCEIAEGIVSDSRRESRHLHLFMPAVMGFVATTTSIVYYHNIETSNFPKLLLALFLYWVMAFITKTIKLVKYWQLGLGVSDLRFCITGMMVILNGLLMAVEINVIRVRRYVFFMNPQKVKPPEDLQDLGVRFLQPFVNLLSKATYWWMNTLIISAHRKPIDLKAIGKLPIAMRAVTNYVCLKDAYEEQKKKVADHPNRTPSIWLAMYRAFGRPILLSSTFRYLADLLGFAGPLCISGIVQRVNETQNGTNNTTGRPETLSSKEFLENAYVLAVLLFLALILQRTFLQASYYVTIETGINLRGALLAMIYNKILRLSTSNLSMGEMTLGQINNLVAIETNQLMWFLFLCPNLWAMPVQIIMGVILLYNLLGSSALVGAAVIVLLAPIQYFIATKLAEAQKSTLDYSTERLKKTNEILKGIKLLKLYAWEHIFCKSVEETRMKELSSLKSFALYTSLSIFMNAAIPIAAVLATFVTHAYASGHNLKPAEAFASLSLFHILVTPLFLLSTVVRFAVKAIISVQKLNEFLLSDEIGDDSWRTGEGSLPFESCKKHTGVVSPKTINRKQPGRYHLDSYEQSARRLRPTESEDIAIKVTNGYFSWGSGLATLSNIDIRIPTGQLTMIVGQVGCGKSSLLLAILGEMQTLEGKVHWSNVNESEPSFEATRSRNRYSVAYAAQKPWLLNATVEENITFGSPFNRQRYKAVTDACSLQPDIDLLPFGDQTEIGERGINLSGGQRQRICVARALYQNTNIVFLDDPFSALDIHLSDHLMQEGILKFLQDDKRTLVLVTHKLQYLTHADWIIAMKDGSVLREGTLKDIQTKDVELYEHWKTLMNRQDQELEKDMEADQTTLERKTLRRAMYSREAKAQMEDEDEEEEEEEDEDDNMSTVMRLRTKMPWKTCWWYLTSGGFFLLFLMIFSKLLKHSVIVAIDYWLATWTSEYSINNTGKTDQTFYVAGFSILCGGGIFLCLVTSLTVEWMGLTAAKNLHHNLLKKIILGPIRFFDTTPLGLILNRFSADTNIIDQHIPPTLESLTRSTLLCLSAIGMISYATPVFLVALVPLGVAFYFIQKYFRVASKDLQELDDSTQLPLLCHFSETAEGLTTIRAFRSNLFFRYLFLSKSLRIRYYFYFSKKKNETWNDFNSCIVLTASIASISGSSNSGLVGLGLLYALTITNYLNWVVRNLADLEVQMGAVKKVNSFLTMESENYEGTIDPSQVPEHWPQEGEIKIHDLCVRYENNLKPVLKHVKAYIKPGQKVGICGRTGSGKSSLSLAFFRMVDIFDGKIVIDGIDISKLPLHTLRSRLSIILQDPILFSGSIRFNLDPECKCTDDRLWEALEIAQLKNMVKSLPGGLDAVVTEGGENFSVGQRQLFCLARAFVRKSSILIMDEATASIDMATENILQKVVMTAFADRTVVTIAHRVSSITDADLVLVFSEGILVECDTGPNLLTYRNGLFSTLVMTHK
Chain of potassium channels (Cavia porcellus, UniProt A0A286XYR9) (Q9JHJ9 whole entry partner): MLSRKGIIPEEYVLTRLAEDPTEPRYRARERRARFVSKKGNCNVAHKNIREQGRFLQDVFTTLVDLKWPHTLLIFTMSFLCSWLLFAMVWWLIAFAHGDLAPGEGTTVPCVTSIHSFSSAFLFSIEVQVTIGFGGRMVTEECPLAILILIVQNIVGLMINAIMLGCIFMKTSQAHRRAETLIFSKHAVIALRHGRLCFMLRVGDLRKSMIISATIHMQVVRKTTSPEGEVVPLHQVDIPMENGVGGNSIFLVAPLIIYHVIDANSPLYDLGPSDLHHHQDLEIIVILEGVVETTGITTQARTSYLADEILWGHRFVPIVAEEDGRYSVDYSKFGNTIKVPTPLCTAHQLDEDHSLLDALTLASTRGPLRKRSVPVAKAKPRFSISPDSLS
Chain of potassium channels (Rattus norvegicus, UniProt Q63563) (Q63563 whole entry): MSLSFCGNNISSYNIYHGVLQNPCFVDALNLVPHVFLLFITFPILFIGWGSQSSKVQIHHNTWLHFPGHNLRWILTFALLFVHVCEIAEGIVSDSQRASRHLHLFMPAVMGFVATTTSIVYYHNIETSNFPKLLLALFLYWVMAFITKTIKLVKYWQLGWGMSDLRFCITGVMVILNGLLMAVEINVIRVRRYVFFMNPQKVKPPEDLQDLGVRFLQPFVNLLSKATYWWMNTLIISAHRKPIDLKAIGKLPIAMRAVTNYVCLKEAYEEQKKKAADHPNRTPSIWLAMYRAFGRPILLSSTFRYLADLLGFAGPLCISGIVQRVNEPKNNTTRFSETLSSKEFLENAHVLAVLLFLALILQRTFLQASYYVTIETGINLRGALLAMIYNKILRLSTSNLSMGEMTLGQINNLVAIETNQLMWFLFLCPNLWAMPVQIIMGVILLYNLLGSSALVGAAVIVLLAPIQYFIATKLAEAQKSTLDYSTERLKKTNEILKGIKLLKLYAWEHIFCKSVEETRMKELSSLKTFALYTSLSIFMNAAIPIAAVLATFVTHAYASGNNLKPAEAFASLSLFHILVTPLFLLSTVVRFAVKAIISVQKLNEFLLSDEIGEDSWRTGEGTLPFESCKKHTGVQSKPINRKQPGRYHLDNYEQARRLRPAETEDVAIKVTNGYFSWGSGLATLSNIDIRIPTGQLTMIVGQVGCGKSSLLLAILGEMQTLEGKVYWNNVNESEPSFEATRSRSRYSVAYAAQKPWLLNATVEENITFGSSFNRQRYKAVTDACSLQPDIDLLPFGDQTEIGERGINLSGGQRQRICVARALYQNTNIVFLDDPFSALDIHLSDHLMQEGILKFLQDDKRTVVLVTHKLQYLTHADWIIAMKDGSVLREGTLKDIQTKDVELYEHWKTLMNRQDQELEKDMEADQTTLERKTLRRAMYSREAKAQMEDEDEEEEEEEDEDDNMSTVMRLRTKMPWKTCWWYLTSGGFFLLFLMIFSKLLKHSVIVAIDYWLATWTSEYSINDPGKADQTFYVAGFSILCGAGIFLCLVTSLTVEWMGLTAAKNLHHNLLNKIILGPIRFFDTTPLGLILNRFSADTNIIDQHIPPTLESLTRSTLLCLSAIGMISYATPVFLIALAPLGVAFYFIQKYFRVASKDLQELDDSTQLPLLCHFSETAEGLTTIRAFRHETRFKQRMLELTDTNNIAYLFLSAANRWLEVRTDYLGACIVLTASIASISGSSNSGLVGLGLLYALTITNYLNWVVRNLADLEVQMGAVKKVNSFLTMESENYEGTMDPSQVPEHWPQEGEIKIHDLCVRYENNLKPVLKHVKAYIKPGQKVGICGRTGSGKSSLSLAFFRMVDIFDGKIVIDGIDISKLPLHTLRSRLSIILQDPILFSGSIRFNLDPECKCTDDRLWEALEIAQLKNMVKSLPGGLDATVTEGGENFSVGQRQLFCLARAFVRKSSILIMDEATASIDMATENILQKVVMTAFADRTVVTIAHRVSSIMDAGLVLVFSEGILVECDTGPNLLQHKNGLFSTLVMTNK
Chain of potassium channels (Rattus norvegicus, UniProt Q63563) (Q63664 whole entry partner): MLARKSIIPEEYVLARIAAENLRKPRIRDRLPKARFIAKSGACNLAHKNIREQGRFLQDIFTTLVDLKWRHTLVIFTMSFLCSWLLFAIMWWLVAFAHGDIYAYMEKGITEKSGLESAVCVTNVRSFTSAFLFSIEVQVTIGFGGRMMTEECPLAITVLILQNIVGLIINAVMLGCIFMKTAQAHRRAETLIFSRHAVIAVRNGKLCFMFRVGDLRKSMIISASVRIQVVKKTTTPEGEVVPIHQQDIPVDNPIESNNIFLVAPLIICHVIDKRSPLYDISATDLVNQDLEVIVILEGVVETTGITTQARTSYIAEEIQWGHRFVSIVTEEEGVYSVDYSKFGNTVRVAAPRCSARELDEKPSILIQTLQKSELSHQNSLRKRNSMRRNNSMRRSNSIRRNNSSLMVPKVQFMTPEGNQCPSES

Compound: 8-(3-bromo-4-fluorophenyl)-6-trifluoromethyl-5,8-dihydrothiopyrano[3 .2-b]pyridine, 1,1-dioxide [Example 159]
- MHP in GPB Cells Maximal Response (% P1075) (potassium channels [1]): 100 % P1075

Compound: O=S1(=O)CCCC2=C1C(c1ccc(F)c(Br)c1)C1=C(CCCS1(=O)=O)N2 [Example 54, 10-(3-bromo-4-fluorophenyl)-3,4,6,7,8,10-hexahydro-2H,5H-dithiopyrano [3,2-b:2′,3′-e]pyridine, 1,1,9,9-tetraoxide]
- Landrace Pig Bladder Index (potassium channels [2]): 0.015
- Landrace Pig Bladder Efficacy (% P1075) (potassium channels [2]; [5]): 89 % P1075
- Landrace Pig Bladder pD2 (potassium channels [2]): 4.9
- MHP in GPB Cells Maximal Response (% P1075) (potassium channels [1]): 107 % P1075 and 133 % P1075

Compound: O=C1CCCC2=C1C(c1ccc(Cl)c([N+](=O)[O-])c1)C1=C(CCCS1(=O)=O)N2 (stereo not shown) [Example 19, 10-(4-chloro-3-nitrolphenyl)-3,4,6,7,8,10-hexahydro-2H-thiopyrano [3,2-b]quinolin-9(5H)-one, 1,1-dioxide]
- Emax (potassium channels [3]; human, maximal efficacy relative to P1075, detrusor strips contracted with 25 mM KCl): 100%
- Landrace Pig Bladder Index (potassium channels [2]): 0.13
- Landrace Pig Bladder pD2 (potassium channels [2]): 6.0
- Emax (potassium channels [2]; pig, maximal efficacy relative to P1075, field stimulation 0.05Hz, 0.5 milli-seconds at 20 volts): 94%

Compound: O=C1CCCC2=C1C(c1cccc(F)c1)C1=C(CCCS1(=O)=O)N2 (stereo not shown) [Example 11, 10-(3-fluorophenyl)-3,4,6,7,8,10-hexahydro-2H-thionyrano [3,2-b]quinolin-9(5H)-one, 1,1-dioxide]
- Landrace Pig Bladder Index (potassium channels [2]): 0.0021
- Landrace Pig Bladder Efficacy (% P1075) (potassium channels [2]; [5]): 100 % P1075
- Landrace Pig Bladder pD2 (potassium channels [2]): 4.1
- EC50 (potassium channels [1]): 20 µM
- MHP in GPB Cells Maximal Response (% P1075) (potassium channels [1]): 29 % P1075
- EC50 (potassium channels [4]): 11 µM
- MHP in A10 Cells Maximal Response (% P1075) (potassium channels [4]): 42 % P1075

Compound: O=C1CCCC2=C1C(c1cccc(Br)c1)C1=C(CCCS1(=O)=O)N2 (stereo not shown) [Example 8, 10-(3-bromophenyl)-3,4,6,7,8,10-hexahydro-2H-thiopyrano [3,2-b]quinolin-9(5H)-one, 1,1-dioxide]
- Landrace Pig Bladder Index (potassium channels [2]): 0.025
- Landrace Pig Bladder Efficacy (% P1075) (potassium channels [2]; [5]): 95 % P1075
- Landrace Pig Bladder pD2 (potassium channels [2]): 5.0
- EC50 (potassium channels [1]): 2.5 µM
- MHP in GPB Cells Maximal Response (% P1075) (potassium channels [1]): 100 % P1075
- EC50 (potassium channels [4]): 7.5 µM
- MHP in A10 Cells Maximal Response (% P1075) (potassium channels [4]): 66 % P1075

Second part, led by results:

- EC50 (potassium channels [1]): 1.2 µM
- MHP in GPB Cells Maximal Response (% P1075) (potassium channels [1]): 92 % P1075
Compound: CC1(C)CCC2=C(C1=O)C(c1cc(Br)c(O)c(Br)c1)C1=C(CCS1(=O)=O)N2 (stereo not shown) [Example 207]

- relaxation of human detrusor strips (potassium channels [3]; control agonist, 25 mM KCl contracted): complete relaxation
Compound: CCC(C)(C)N=C(NC#N)Nc1cccnc1 [Example P1075, reference compound]
- effect on stimulated twitch of pig bladder strips (potassium channels [2]; control agonist, concentration range of 10-9 to 10-′M, 1/2 log increments): completely eliminated the stimulated twitch

- EC50 (potassium channels [1]): 10 µM
- MHP in GPB Cells Maximal Response (% P1075) (potassium channels [1]): 51 % P1075
Compound: CC1(C)CCC2=C(C1=O)C(c1cccc([N+](=O)[O-])c1)C1=C(CCS1(=O)=O)N2 (stereo not shown) [Example 189, 7,7-dimethyl-9-(3-nitrophenyl)-2,3,5,6,7,,9-hexahydrothieno[3.2-b]guinolin-8(4H)-one 1,1-dioxide]

- EC50 (potassium channels [1]): > 10 µM
- MHP in GPB Cells Maximal Response (% P1075) (potassium channels [1]): 12 % P1075
Compound: CC1(C)CCC2=C(C1=O)C(c1cc(Cl)cc(Br)c1O)C1=C(CCS1(=O)=O)N2 (stereo not shown) [Example 199, 9-(3-bromo-5-chloro-2-hydroxyphenyl)-7,7-dimethyl-2,3.5.6,7,9-hexahydrothieno[3.2-b]quinolin-8(4H)-one 1,1-dioxide]

— patent US6593335B1, “Potassium channel openers” (Abbott Laboratories, priority 1997, dated 2003)
